According to ChEMBL document CHEMBL5321215, “Discovery of quinazolin-4(3H)-one derivatives as novel AChE inhibitors with anti-inflammatory activities” (Eur J Med Chem, 2023):
Active and inactive are the calls of the source. The calls are words filed in the database; no cut-off is given here.

Tests used:
[1] = molecular target: Acetylcholinesterase (Electrophorus electricus) (UniProt O42275); test: Inhibition of electric eel AChE using acetylthiocholine iodide as substrate at 20 uM incubated for 20 mins by Ellman's method relative to control
Sequence of Acetylcholinesterase (Electrophorus electricus) (O42275 24-633 limits assumed): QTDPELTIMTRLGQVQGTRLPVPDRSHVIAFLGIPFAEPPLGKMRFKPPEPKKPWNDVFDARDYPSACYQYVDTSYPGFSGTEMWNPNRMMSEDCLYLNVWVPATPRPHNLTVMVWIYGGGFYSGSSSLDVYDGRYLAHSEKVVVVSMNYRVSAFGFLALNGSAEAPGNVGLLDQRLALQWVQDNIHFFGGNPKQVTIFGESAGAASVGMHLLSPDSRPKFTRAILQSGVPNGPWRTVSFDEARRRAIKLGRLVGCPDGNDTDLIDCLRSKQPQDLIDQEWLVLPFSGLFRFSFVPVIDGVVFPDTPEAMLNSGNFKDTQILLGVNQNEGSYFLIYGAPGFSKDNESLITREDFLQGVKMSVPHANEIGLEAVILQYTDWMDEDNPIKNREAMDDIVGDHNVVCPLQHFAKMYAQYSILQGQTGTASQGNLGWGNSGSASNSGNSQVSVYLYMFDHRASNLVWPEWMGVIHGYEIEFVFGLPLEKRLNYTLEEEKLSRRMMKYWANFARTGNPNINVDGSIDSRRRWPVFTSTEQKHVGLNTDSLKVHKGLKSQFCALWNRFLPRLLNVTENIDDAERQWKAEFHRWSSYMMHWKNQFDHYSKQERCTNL

[2] = molecular target: Cholinesterase (Equus caballus) (UniProt P81908); test: Inhibition of equine serum BChE at 20 uM by Ellman's method relative to control; type: cell-free
Sequence of Cholinesterase (Equus caballus) (P81908 whole entry): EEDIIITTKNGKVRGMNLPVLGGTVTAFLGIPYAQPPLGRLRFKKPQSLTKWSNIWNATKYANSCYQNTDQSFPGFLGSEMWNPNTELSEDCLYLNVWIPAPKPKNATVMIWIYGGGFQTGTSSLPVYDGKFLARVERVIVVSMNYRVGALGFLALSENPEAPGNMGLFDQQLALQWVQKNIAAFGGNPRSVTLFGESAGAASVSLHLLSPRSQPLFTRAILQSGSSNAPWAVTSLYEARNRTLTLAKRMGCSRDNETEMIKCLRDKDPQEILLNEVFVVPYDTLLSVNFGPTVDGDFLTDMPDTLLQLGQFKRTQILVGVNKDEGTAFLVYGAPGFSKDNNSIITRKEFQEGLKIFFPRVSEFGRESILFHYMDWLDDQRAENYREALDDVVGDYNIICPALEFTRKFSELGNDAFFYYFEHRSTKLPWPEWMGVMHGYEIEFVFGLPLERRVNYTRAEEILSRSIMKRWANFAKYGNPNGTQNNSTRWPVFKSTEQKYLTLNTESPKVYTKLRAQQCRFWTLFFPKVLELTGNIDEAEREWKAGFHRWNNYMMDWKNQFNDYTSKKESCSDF

BV-2 [3] = test: Effect on JNK protein level in LPS-induced mouse BV-2 cells at 10 uM incubated for 24 hrs by Western blot analysis; type: functional, cell-based
Acetylcholinesterase = Acetylcholinesterase (Electrophorus electricus, UniProt O42275); test: Inhibition of electric eel AChE using acetylthiocholine iodide as substrate incubated for 20 mins by Ellman's method
Sequence of Acetylcholinesterase (O42275 whole entry): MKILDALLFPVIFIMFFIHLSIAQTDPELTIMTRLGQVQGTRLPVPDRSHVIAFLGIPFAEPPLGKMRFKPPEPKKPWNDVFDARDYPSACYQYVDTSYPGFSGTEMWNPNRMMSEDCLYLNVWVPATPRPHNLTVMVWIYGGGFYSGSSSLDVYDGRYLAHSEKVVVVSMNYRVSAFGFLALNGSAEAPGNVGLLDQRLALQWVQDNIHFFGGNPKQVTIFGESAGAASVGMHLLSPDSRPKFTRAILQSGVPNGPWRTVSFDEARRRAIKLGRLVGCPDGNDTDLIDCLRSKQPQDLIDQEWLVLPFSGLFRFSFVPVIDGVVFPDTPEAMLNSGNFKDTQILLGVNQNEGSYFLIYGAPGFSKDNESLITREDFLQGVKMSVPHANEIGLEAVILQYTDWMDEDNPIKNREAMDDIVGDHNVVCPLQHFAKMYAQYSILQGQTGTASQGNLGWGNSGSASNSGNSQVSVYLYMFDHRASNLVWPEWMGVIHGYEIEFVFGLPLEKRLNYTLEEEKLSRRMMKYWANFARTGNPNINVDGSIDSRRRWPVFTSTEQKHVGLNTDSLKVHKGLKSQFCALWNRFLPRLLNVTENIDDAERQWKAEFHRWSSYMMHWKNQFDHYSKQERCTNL

Cholinesterase [4] = molecular target: T1, Cholinesterase (Equus caballus, UniProt P81908); test: Inhibition of equine serum BChE by Ellman's method; type: cell-free
T1 sequence (P81908 whole entry): as the sequence (P81908 whole entry) above

RAW264.7 [5] = test: Antiinflammatory activity against mouse RAW264.7 cells assessed as inhibition of LPS-induced nitric oxide production at 20 uM preincubated for 24 hrs followed by LPS stimulation by Griess reagent-based colorimetric assay relative to control; type: functional; set-up: scale not given: the % may be the effect or the level left
RAW264.7 [6] = test: Antiinflammatory activity against mouse RAW264.7 cells assessed as inhibition of LPS-induced nitric oxide production preincubated for 24 hrs followed by LPS stimulation by Griess reagent-based colorimetric assay; type: functional, cell-based
[7] = molecular target: Acetylcholinesterase (Electrophorus electricus) (UniProt O42275); test: Non competitive inhibition of Electric eel AChE using acetylthiocholine iodide as substrate assessed as decrease in Vmax with constant Km by Lineweaver-Burk plot analysis
BV-2 [8] = test: Cytotoxicity against mouse BV-2 cells assessed as reduction in cell viability at 10 uM incubated for 24 hrs by CCK-8 assay; type: toxicity, cell-based; conditions: bv-2, 24 h
BV-2 [9] = test: Antiinflammatory activity against mouse BV-2 cells assessed as reduction in LPS-induced IL-1beta mRNA expression measured after 24 hrs by qRT-PCR analysis; type: functional, cell-based; conditions: dose 1.25-10 µM
BV-2 [10] = test: Antiinflammatory activity against mouse BV-2 cells assessed as reduction in LPS-induced TNF-alpha mRNA expression measured after 24 hrs by qRT-PCR analysis; type: functional, cell-based; conditions: dose 1.25-10 µM
BV-2 [11] = test: Antiinflammatory activity against mouse BV-2 cells assessed as reduction in LPS-induced IL-6 mRNA expression level measured after 24 hrs by qRT-PCR analysis; type: functional, cell-based; conditions: dose 1.25-10 µM
BV-2 [12] = test: Antiinflammatory activity against mouse BV-2 cells assessed as reduction in LPS-induced CCL2 mRNA expression measured after 24 hrs by qRT-PCR analysis; type: functional, cell-based; conditions: dose 1.25-10 µM
BV-2 [13] = test: Inhibition of NF-kappaB pathway in LPS-induced mouse BV-2 cells assessed as reduction in p65 protein expression level at 10 uM incubated for 24 hrs by Western blot analysis; type: cell-based
BV-2 [14] = test: Inhibition of NF-kappaB pathway in LPS-induced mouse BV-2 cells assessed as reduction in phosphorylated p65 protein expression level at 10 uM incubated for 24 hrs by Western blot analysis; type: cell-based
[15] = molecular target: NACHT, LRR and PYD domains-containing protein 3 (Mus musculus) (UniProt Q8R4B8); test: Inhibition of NLRP3 inflammasome in LPS-induced mouse BV-2 cells assessed as decrease in NLRP3 protein expression at 10 uM incubated for 24 hrs by Western blot analysis; type: cell-based
Sequence of NACHT, LRR and PYD domains-containing protein 3 (Mus musculus) (Q8R4B8 whole entry, the tested form may be a part): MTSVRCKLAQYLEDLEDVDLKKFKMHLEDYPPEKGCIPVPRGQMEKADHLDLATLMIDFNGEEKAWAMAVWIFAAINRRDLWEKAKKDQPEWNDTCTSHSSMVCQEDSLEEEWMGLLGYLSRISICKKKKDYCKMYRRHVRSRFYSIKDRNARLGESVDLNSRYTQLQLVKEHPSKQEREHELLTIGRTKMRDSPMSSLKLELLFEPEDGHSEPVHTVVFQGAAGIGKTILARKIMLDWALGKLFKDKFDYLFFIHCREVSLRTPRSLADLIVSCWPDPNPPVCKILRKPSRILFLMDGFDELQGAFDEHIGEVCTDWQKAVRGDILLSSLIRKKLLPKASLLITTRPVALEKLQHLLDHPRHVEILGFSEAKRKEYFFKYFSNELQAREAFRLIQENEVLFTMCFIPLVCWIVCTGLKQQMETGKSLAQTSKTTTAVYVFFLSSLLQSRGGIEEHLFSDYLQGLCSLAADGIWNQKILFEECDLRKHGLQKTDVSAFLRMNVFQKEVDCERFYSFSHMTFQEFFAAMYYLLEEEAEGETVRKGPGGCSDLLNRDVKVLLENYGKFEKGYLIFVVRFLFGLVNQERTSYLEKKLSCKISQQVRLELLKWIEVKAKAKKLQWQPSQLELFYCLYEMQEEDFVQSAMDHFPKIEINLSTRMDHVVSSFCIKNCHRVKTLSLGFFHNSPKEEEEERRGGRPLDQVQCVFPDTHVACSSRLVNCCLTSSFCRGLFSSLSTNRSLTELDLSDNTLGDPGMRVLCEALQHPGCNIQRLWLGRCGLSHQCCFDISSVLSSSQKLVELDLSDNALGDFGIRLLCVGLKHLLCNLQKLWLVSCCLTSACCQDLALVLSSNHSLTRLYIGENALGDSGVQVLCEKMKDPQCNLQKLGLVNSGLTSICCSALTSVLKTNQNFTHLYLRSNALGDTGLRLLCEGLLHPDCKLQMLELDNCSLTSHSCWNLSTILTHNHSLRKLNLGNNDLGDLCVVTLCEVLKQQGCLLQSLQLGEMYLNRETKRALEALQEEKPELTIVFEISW

BV-2 [16] = test: Inhibition of MAPK/JNK signalling pathway in LPS-induced mouse BV-2 cells assessed as reduction in JNK phosphorylation level at 10 uM incubated for 24 hrs by Western blot analysis; type: cell-based
[17] = molecular target: Cholinesterase (Equus caballus) (UniProt P81908); test: Non competitive inhibition of equine serum BChE assessed as decrease in Vmax with constant Km by Lineweaver-Burk plot analysis; type: cell-free
Cholinesterase [18] = molecular target: T1, Cholinesterase; test: Mixed type inhibition of equine serum BChE assessed as inhibition constant by Lineweaver-Burk plot analysis; type: cell-free
[19] = molecular target: Cholinesterase (Equus caballus) (UniProt P81908); test: Mixed type inhibition of equine serum BChE assessed as Kis by Lineweaver-Burk plot analysis; type: cell-free
[20] = molecular target: Cholinesterase (Equus caballus) (UniProt P81908); test: Mixed type inhibition of equine serum BChE assessed as increase in slope and Y-intercept at increasing concentration by Lineweaver-Burk plot analysis; type: cell-free

| SMILES | inhibition [1] [%] | inhibition [2] | other results |
| --- | --- | --- | --- |
| COc1cc(OC)c2c(=O)[nH]c(-c3c[nH]c4ccccc34)nc2c1 | 31.9 | 8.91% | – |
| COc1cc(-c2nc3ccc(NC(=O)CN4CCCCC4)cc3c(=O)[nH]2)cc(OC)c1OC | 24.6 | inactive | – |
| COc1cc(OC)c2c(=O)[nH]c(-c3cc(OC)c(OC)c(OC)c3)nc2c1 | 38.7 | 10.9% | – |
| COc1cc(-c2nc3ccc([N+](=O)[O-])cc3c(=O)[nH]2)cc(OC)c1OC | 2.52 | inactive | – |
| COc1cc(OC)c2c(=O)[nH]c(-c3ccc(N4CCN(C)CC4)cc3)nc2c1 | 91.8 | 38.7% | Activity (BV-2 [3]): Active; IC50 (Acetylcholinesterase): 5.04 µM; IC50 (Cholinesterase [4]): > 20 µM; Activity (RAW264.7 [5]): 116.4%; IC50 (RAW264.7 [6]): 3.29 µM; inhibition [7]: Active; Activity (BV-2 [8]): Non-Toxic; Activity (BV-2 [9]): Dose-Dependent Effect; Activity (BV-2 [10]): Dose-Dependent Effect; Activity (BV-2 [11]): Dose-Dependent Effect; Activity (BV-2 [12]): Dose-Dependent Effect; inhibition (BV-2 [13]): Active; inhibition (BV-2 [14]): Active; inhibition [15]: Active; inhibition (BV-2 [16]): Active |
| COc1cc(-c2nc3ccc(NCc4ccc(N5CCN(C)CC5)cc4)cc3c(=O)[nH]2)cc(OC)c1OC | 23.6 | inactive | – |
| C[C@@H]1C[C@H]2[C@@H]3CCC4=CC(=O)C=C[C@]4(C)[C@@]3(F)[C@@H](O)C[C@]2(C)[C@@]1(O)C(=O)CO [DEXAMETHASONE] | – | – | Activity (RAW264.7 [5]): 60.3%; IC50 (RAW264.7 [6]): 11.5 µM |
| COc1cc(-c2nc3ccc(Br)cc3c(=O)[nH]2)cc(OC)c1OC | 33.8 | 12.4% | – |
| COc1cc(-c2nc3ccc(NC(=O)CCN4CCC(O)CC4)cc3c(=O)[nH]2)cc(OC)c1OC | 20.2 | 15.8% | – |
| COc1cc(OC)c2c(=O)[nH]c(-c3nc[nH]c3C)nc2c1 | 60.8 | 25.9% | IC50 (Acetylcholinesterase): 28.1 µM; IC50 (Cholinesterase [4]): > 20 µM; Activity (RAW264.7 [5]): 61.2% |
| COc1cc(-c2nc3ccc(NC(=O)c4ccc(Cl)cc4)cc3c(=O)[nH]2)cc(OC)c1OC | 10.6 | 14.9% | – |
| O=c1[nH]c(C2CCN(Cc3ccccc3)CC2)nc2ccccc12 | 63.3 | 48.6% | – |
| CN1CCN(c2ccc(-c3nc4ccc(Br)cc4c(=O)[nH]3)cc2)CC1 | 60.8 | 31.2% | IC50 (Acetylcholinesterase): 16.1 µM; IC50 (Cholinesterase [4]): > 20 µM; Activity (RAW264.7 [5]): 42.7% |
| COc1cc(OC)c2c(=O)[nH]c(-c3ccc(N4CCN(C(=O)OC(C)(C)C)CC4)cc3)nc2c1 | 37.4 | inactive | – |
| COc1cc(OC)c2c(=O)[nH]c(-c3ccc(N4CCN(CCO)CC4)cc3)nc2c1 | 62.4 | 3.32% | – |
| CN1CCN(c2ccc(-c3nc4ccc(N)cc4c(=O)[nH]3)cc2)CC1 | 58.6 | 3.32% | – |
| COc1cc(-c2nc3ccc(NC(=O)CCN4CCCCC4)cc3c(=O)[nH]2)cc(OC)c1OC | 26.1 | 14.6% | – |
| COc1cc(OC)c2c(=O)[nH]c(-c3ccc(N4CCNCC4)cc3)nc2c1 | 44.2 | inactive | – |
| COc1cc(OC)c2c(=O)[nH]c(-c3ccc(N4CCOCC4)cc3)nc2c1 | 47.3 | 16.5% | – |

| SMILES | inhibition [1] [%] | inhibition [2] | other results |
| --- | --- | --- | --- |
| COc1cc(-c2nc3ccc(NC(=O)CCN4CCN(C)CC4)cc3c(=O)[nH]2)cc(OC)c1OC | 24.7 | inactive | – |
| COc1cc(-c2nc3ccc(NCC4CCN(Cc5ccccc5)CC4)cc3c(=O)[nH]2)cc(OC)c1OC | 69 | 68.6% | IC50 (Acetylcholinesterase): 4.31 µM; IC50 (Cholinesterase [4]): 11.2 µM; Activity (RAW264.7 [5]): 94%; inhibition [7]: Active; inhibition [17]: Active; Activity (BV-2 [8]): Toxic |
| O=c1[nH]c(C2CCN(Cc3ccccc3)CC2)nc2ccc([N+](=O)[O-])cc12 | 59.6 | inactive | IC50 (Acetylcholinesterase): 6.86 µM; IC50 (Cholinesterase [4]): > 20 µM; Activity (RAW264.7 [5]): 40.4% |
| CCN(CC)c1ccc(-c2nc3cc(OC)cc(OC)c3c(=O)[nH]2)cc1 | 23.7 | inactive | – |
| CN1CCN(c2ccc(-c3nc4ccc([N+](=O)[O-])cc4c(=O)[nH]3)cc2)CC1 | 69.4 | 63.7% | IC50 (Acetylcholinesterase): 5.49 µM; IC50 (Cholinesterase [4]): > 100 µM; Activity (RAW264.7 [5]): 27.1% |
| COc1cc(OC)c2c(=O)[nH]c(-c3cccs3)nc2c1 | 44.2 | 35.3% | – |
| COc1cc(OC)c2c(=O)[nH]c(-c3cn(Cc4ccccc4)cn3)nc2c1 | 87.9 | 95% | IC50 (Acetylcholinesterase): 7.01 µM; IC50 (Cholinesterase [4]): 0.83 µM; Activity (RAW264.7 [5]): 33.4%; Activity (BV-2 [8]): Toxic; Ki (Cholinesterase [18]): 0.74 µM; Kis [19]: 8.58 µM; inhibition [20]: Active |
| COc1cc(OC)c2c(=O)[nH]c(C(=O)c3cc(OC)c(OC)c(OC)c3)nc2c1 | 23.1 | inactive | – |
| COc1cc(-c2nc3ccc(NC(=O)c4ccc(F)cc4)cc3c(=O)[nH]2)cc(OC)c1OC | 6.3 | 12.7% | – |
| COc1cc(OC)c2c(=O)[nH]c(C(=O)c3ccc(O)cc3)nc2c1 | 7.74 | inactive | – |
| COc1cc(-c2nc3ccccc3c(=O)[nH]2)cc(OC)c1OC | 47.9 | 32.9% | – |
| COc1cc(OC)c2c(=O)[nH]c(-c3ccc(O[C@@H]4O[C@H](CO)[C@@H](O)[C@@H](O)[C@H]4O)cc3)nc2c1 | 32.8 | 11.3% | – |
| COc1cc(OC)c2c(=O)[nH]c(C3CCN(Cc4ccccc4)CC3)nc2c1 | 83.4 | 59.1% | IC50 (Acetylcholinesterase): 7.88 µM; IC50 (Cholinesterase [4]): 36.9 µM; Activity (RAW264.7 [5]): 60.5%; IC50 (RAW264.7 [6]): 21.3 µM |
| COc1cc(-c2nc3ccc(NC(=O)CCl)cc3c(=O)[nH]2)cc(OC)c1OC | 32.5 | 9.51% | – |
| COc1cc(OC)c2c(=O)[nH]c(-c3c[nH]cn3)nc2c1 | 40.4 | 13.1% | – |
| COc1cc(OC)c2c(=O)[nH]c(-c3ccc(-c4ccncc4)cc3)nc2c1 | 30.9 | 1.72% | – |
| CN1CCN(c2ccc(-c3nc4ccccc4c(=O)[nH]3)cc2)CC1 | 68.1 | 24.1% | IC50 (Acetylcholinesterase): 30.4 µM; IC50 (Cholinesterase [4]): > 20 µM; Activity (RAW264.7 [5]): 45.6% |
| COc1cc(-c2nc3ccc(NC(=O)c4ccc(Br)cc4)cc3c(=O)[nH]2)cc(OC)c1OC | 23.5 | 8.3% | – |
| O=c1[nH]c(C2CCN(Cc3ccccc3)CC2)nc2ccc(Br)cc12 | 31.7 | 14.6% | – |
